Molecular target: recombinant human LRRK2 (catalytic domain only [amino acids 970-2527], GST-tagged) (Homo sapiens (Human), UniProt Q5S007)
Experiment: LRRK2 Enzymatic Assay
Assay type: biochemical
Settings: LRRKtide substrate, [32P]-ATP
Description: LRRKtide substrate (peptide sequence RLGRDKYKTLRQIRQ, derived from human ezrin [amino acids 561-573], moesin [amino acids 539-553] and radixin [amino acids 558-570], obtained from SignalChem, catalogue #L10-58, reconstituted in 20 mM Tris-HCl at pH 7.5 to a final concentration of 1 mg/mL, assay concentration 20 μM) and recombinant human LRRK2 (catalytic domain only [amino acids 970-2527], GST-tagged, expressed in insect cells, obtained from ThermoFisher Scientific, catalogue #PV4874, 0.35 mg/mL, assay concentration 30 nM) were mixed in assay buffer (20 mM Hepes pH 7.5, 10 mM MgCl2, 1 mM EGTA, 0.02% Brij35, 0.02 mg/ml BSA, 0.1 mM Na3VO4, 2 mM DTT, 1% DMSO). Compounds of interest (in DMSO, serial 3-fold dilution from 10 μM to 0.5 nM) or control (1% DMSO) were dispensed into the kinase reaction mixture by Acoustic technology (Echo550; nanoliter range). After incubation at room temperature for 20 minutes, the kinase reaction was initiated by addition of [^32P]-ATP (Specific activity 10 μCi/μl) and the mixture was incubated at room temperature for 2 hours. The reaction was then stopped by spotting the reaction mixture on strips of phosphocellulose P81 paper. Following washing, the radioactivity of the P81 paper was measured and kinase activity data were expressed as the percent remaining kinase activity in test samples compared to vehicle (dimethyl sulfoxide) reactions. IC50 values and curve fits were obtained using Prism (GraphPad Software).

Chain of recombinant human LRRK2 (catalytic domain only [amino acids 970-2527], GST-tagged) (Q5S007 970-2527): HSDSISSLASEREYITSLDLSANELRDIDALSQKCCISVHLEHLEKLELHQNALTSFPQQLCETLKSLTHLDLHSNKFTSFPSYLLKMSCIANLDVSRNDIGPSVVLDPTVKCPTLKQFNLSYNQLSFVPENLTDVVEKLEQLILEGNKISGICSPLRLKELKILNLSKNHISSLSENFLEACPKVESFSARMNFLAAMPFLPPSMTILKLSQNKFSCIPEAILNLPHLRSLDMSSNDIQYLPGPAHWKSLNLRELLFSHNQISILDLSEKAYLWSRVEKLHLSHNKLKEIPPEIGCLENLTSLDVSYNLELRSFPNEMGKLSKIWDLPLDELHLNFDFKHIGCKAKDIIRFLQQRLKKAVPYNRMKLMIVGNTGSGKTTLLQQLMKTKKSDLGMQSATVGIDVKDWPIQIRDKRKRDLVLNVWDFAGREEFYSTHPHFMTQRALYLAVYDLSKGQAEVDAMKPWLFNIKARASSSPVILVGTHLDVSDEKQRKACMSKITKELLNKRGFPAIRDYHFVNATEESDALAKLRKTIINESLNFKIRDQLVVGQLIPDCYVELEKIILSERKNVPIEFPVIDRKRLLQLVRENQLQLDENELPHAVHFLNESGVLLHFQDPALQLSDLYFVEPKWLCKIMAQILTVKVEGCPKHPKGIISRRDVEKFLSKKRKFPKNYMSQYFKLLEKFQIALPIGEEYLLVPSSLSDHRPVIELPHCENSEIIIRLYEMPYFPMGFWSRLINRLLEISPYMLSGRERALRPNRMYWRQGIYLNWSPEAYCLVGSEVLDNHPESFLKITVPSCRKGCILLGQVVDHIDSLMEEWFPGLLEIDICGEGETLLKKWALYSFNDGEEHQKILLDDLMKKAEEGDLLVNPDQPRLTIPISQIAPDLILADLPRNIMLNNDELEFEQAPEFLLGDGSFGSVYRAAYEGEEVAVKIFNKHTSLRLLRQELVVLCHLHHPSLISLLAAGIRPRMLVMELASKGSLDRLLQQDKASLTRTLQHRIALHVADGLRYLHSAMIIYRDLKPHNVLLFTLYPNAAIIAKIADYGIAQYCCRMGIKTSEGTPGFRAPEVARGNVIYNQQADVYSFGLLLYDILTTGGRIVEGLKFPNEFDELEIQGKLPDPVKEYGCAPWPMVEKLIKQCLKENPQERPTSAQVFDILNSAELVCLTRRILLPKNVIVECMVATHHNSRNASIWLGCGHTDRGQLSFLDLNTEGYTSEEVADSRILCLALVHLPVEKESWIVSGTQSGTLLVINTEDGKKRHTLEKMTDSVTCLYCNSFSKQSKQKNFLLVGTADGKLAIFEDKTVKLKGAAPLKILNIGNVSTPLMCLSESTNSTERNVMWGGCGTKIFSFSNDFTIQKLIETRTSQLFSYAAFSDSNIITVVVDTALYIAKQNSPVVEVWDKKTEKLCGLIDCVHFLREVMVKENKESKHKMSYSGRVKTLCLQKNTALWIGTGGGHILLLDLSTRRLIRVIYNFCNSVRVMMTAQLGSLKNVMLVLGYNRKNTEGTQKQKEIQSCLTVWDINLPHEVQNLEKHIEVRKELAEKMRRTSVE

`Clc1cnc(Nc2ccc(N3CCOCC3)cc2)nc1OCC1CCCCC1` [Example 147, 5-chloro-4-(cyclohexylmethoxy)-N-(4-morpholinophenyl)pyrimidin-2-amine] and `N#CC1CCC(COc2nc(Nc3ccc(N4CCOCC4)cc3)ncc2F)CC1` (racemic) [Example 272, 4-(((5-fluoro-2-((4-morpholinophenyl)amino)pyrimidin-4-yl)oxy)methyl)cyclohexane-1-carbonitrile] cannot be ordered by IC50: under 50 nM for the first, under 50 nM for the second.

`N[C@H]1CC[C@H](COc2ccnc(Nc3cccc(N4CCOCC4)c3)n2)CC1` [Example 6, 4-(((1R,4R)-4-aminocyclohexyl)methoxy)-N-(3-morpholinophenyl) pyrimidin-2-amine] and `COc1cnc(Nc2ccc(N3CCOCC3)cc2)nc1OC[C@H]1CC[C@H](N(C)C)CC1` [Example 55, 4-(((1R,4R)-4-(dimethylamino)cyclo-hexyl)methoxy)-5-methoxy-N-(4-morpholinophenyl)py-rimidin-2-amine] cannot be ordered by IC50: under 50 nM for the first, under 50 nM for the second.

First: CC(C)(O)[C@H]1CC[C@H](COc2nc(Nc3ccc(N4C5CCC4COC5)cc3)ncc2F)CC1 [Example 254, 2-((1S,4S)-4-(((2-((4-(3-oxa-8-azabicyclo[3.2.1]octan-8-yl)phenyl)amino)-5-fluoropyrimidin-4-yl)oxy)methyl)cyclohexyl)propan-2-ol]
Second: O=C(N[C@H]1CC[C@H](COc2nc(Nc3ccc(N4C5CCC4COC5)cc3)ncc2F)CC1)C(F)(F)F [Example 209, N-((1R,4R)-4-(((2-((4-(3-oxa-8-aza-bicyclo[3.2.1]octan-8-yl)phenyl)amino)-5-fluoro-pyrimidin-4-yl)oxy)methyl)cyclohexyl)-2,2,2-trifluoro-acetamide]
The IC50 of the first is higher: 50 to 200 nM for the first, under 50 nM for the second. The second is the more potent here.

First: CN[C@H]1CC[C@H](COc2ccnc(Nc3cn(C(C)(C)C#N)nc3C)n2)CC1 [Example 32, 2-methyl-2-(3-methyl-4-((4-(((1R,4R)-4-(methylamino)cyclo-hexyl)methoxy)pyrimidin-2-yl)amino)-1H-pyrazol-1-yl)propanenitrile]
Second: Cc1nn(C(C)(C)C#N)cc1Nc1nccc(OCC2CCC(O)CC2)n1 (stereo not drawn) [Example 119, 2-(4-((4-((4-hydroxycyclohexyl)methoxy)pyrimidin-2-yl)amino)-3-methyl-1H-pyrazol-1-yl)-2-methylpropanenitrile]
The IC50 of the first is lower: under 50 nM for the first, 200 to 400 nM for the second. The first is the more potent here.

`Cc1nn(C(C)(C)C#N)cc1Nc1ncc(F)c(OC[C@H]2CC[C@@H](O)CC2)n1` [Example 126, 2-(4-((5-fluoro-4-(((1S,4S)-4-hydroxycyclohexyl)methoxy)pyrimidin-2-yl)amino)-3-methyl-1H-pyrazol-1-yl)-2-methylpropanenitrile] and `Cc1nn(C(C)(C)C#N)cc1Nc1ncc(F)c(OCC2CCC(O)C2)n1` (stereo not drawn) [Example 127, 2-(4-((5-fluoro-4-((3-hydroxycyclopentyl)methoxy)pyrimidin-2-yl)amino)-3-methyl-1H-pyrazol-1-yl)-2-methylpropanenitrile] cannot be ordered by IC50: under 50 nM for the first, under 50 nM for the second.

`CC(C)n1cc(Nc2ncc(F)c(OC[C@H]3CC[C@@H](O)CC3)n2)cn1` [Example 219, (1S,4S)-4-(((5-fluoro-2-((1-isopropyl-1H-pyrazol-4-yl)amino)pyrimidin-4-yl)oxy)methyl)cyclohexan-1-ol] and `O[C@H]1CC[C@H](COc2nc(Nc3cnn(C(F)(F)F)c3)ncc2F)CC1` [Example 222, (1R,4R)-4-(((5-fluoro-2-((1-(trifluoromethyl)-1H-pyrazol-4-yl)amino)pyrimidin-4-yl)oxy)methyl)cyclohexan-1-ol] cannot be ordered by IC50: over 400 nM for the first, over 400 nM for the second.

`CC(=O)N[C@H]1CC[C@H](COc2nc(Nc3ccc(N4CCOCC4)cc3)ncc2F)CC1` [Example 82, N-((1R,4R)-4-(((5-fluoro-2-((4-morpholinophenyl)amino)pyrimidin-4-yl)oxy)methyl)cyclo-hexyl)acetamide] and `O=C(N[C@H]1CC[C@H](COc2nc(Nc3ccc(N4CCOCC4)cc3)ncc2F)CC1)C(F)(F)F` [Example 99, 2,2,2-trifluoro-N-((1R,4R)-4-(((5-fluoro-2-((4-morpholino-phenyl)amino)pyrimidin-4-yl)oxy)methyl)cyclohexyl) acetamide] cannot be ordered by IC50: under 50 nM for the first, under 50 nM for the second.

`CC(C)n1cc(Nc2ncc(F)c(OCC34CCC(O)(CC3)CC4)n2)cn1` [Example 256, 4-(((5-fluoro-2-((1-isopropyl-1H-pyrazol-4-yl)amino)pyrimidin-4-yl)oxy)methyl)bicyclo[2.2.2]octan-1-ol] and `CC(=O)N[C@H]1CC[C@H](COc2nc(Nc3cnn(C4CCOCC4)c3)ncc2F)CC1` [Example 193, N-((1R,4R)-4-(((5-fluoro-2-((1-(tetrahydro-2H-pyran-4-yl)-1H-pyrazol-4-yl)amino)pyrimidin-4-yl)oxy)methyl)cyclo-hexyl)acetamide] cannot be ordered by IC50: under 50 nM for the first, under 50 nM for the second.

Compared with `CN[C@H]1CC[C@H](COc2nc(Nc3ccc(N4CCOCC4)cc3)ncc2OC)CC1` [Example 35, 5-methoxy-4-(((1R,4R)-4-(methylamino)cyclo-hexyl)methoxy)-N-(4-morpholinophenyl) pyrimidin-2-amine], `CC(N[C@H]1CC[C@H](COc2nc(Nc3ccc(N4CCOCC4)cc3)ncc2F)CC1)C(F)(F)F` (stereo partly drawn) [Example 116, 5-fluoro-N-(4-morpholino-phenyl)-4-(((1R,4R)-4-((1,1,1-trifluoro-propan-2-yl)amino)cyclohexyl)methoxy) pyrimidin-2-amine] is higher in IC50: under 50 nM for the first, 200 to 400 nM for the second.

Compared with `CC(C)OC1CCC(COc2nc(Nc3ccc(N4C[C@@H](C)O[C@@H](C)C4)cc3)ncc2F)CC1` (mixture of isomers) [Example 279, N-(4-((2S,6R)-2,6-dimethylmorpholino)phenyl)-5-fluoro-4-((4-isopropoxycyclohexyl)methoxy)pyrimidin-2-amine], `CC(=O)N1CCC(COc2nc(Nc3ccc(N4CCOCC4)cc3)ncc2Cl)C(F)(F)C1` (stereo not drawn) [Example 95, 1-(4-(((5-chloro-2-((4-morpholinophenyl)amino)pyrimidin-4-yl)oxy)methyl)-3,3-difluoropiperidin-1-yl)ethan-1-one] is lower in IC50: 200 to 400 nM for the first, under 50 nM for the second. The second is the more potent here.

Compared with `Cc1nn(C(C)(C)C#N)cc1Nc1ncc(F)c(OCC2CCC(F)(F)CC2)n1` [Example 270, 2-(4-((4-((4,4-difluorocyclohexyl)methoxy)-5-fluoropyrimidin-2-yl)amino)-3-methyl-1H-pyrazol-1-yl)-2-methylpropanenitrile], `Cc1nn(C(C)(C)C#N)cc1Nc1ncc(F)c(OCC2CC(C#N)C2)n1` (single isomer, unassigned) [Example 290, 3-(((2-((1-(2-cyanopropan-2-yl)-3-methyl-1H-pyrazol-4-yl)amino)-5-fluoropyrimidin-4-yl)oxy)methyl)cyclobutane-1-carbonitrile] is lower in IC50: 50 to 200 nM for the first, under 50 nM for the second. The second is the more potent here.

First: Cc1nn(C(C)(C)C#N)cc1Nc1ncc(C#N)c(OCC2CC(F)(F)C2)n1 [Example 155, 2-((1-(2-cyanopropan-2-yl)-3-methyl-1H-pyrazol-4-yl)amino)-4-((3,3-difluorocyclobutyl)methoxy)pyrimidine-5-carbonitrile]
Second: Cc1nn(C(C)(C)C#N)cc1Nc1ncc(Cl)c(OCC2CCC(NC3CC(F)(F)C3)CC2)n1 (stereo not drawn) [Example 145, 2-(4-((5-chloro-4-((4-((3,3-difluorocyclobutyl)amino)cyclohexyl)methoxy)pyrimidin-2-yl)amino)-3-methyl-1H-pyrazol-1-yl)-2-methylpropanenitrile]
The IC50 of the first is higher: 50 to 200 nM for the first, under 50 nM for the second. The second is the more potent here.

`CNC[C@H]1CC[C@H](COc2nc(Nc3cnn(C4CC(C#N)C4)c3C)ncc2Cl)CC1` (stereo partly drawn) [Example 50, 3-(4-((5-chloro-4-(((1R,4R)-4-((methylamino)methyl)cyclohexyl)methoxy)pyrimidin-2-yl)amino)-5-methyl-1H-pyrazol-1-yl)cyclobutane-1-carbonitrile] and `Cc1nn(C2CC(C#N)C2)cc1Nc1ncc(Cl)c(OCC2CC3(COC3)C2)n1` (stereo not drawn) [Example 151, 3-(4-((4-((2-oxaspiro[3.3]heptan-6-yl)methoxy)-5-chloropyrimidin-2-yl)amino)-3-methyl-1H-pyrazol-1-yl)cyclobutane-1-carbonitrile] cannot be ordered by IC50: under 50 nM for the first, under 50 nM for the second.

Going from `Cc1nn(C(C)(C)C#N)cc1Nc1ncc(F)c(OCC2(F)CCN(C)CC2)n1` [Example 66, 2-(4-((5-fluoro-4-((4-fluoro-1-methylpiperidin-4-yl)methoxy)pyrimidin-2-yl)amino)-3-methyl-1H-pyrazol-1-yl)-2-methylpropanenitrile] to `Cc1nn(C(C)(C)C#N)cc1Nc1ncc(Cl)c(OCC2(F)CCN(C)CC2)n1` [Example 61, 2-(4-((5-chloro-4-((4-fluoro-1-methylpiperidin-4-yl)methoxy)pyrimidin-2-yl)amino)-3-methyl-1H-pyrazol-1-yl)-2-methylpropanenitrile], the IC50 falls from over 400 nM to under 50 nM.

`CCN1CCN(Cc2ccc(Nc3ncc(Cl)c(OCC4CCC(O)CC4)n3)nc2)CC1` (stereo not drawn) [Example 131, 4-(((5-chloro-2-((5-((4-ethylpiperazin-1-yl)methyl)pyridin-2-yl)amino)pyrimidin-4-yl)oxy)methyl)cyclohexan-1-ol] and `CC(=O)N[C@H]1CC[C@H](COc2ccnc(Nc3cn(C4CC(C#N)C4)nc3C)n2)CC1` (stereo partly drawn) [Example 75, N-((1R,4R)-4-(((2-((1-(3-cyanocyclobutyl)-3-methyl-1H-pyrazol-4-yl)amino)pyrimidin-4-yl)oxy)methyl)cyclo-hexyl)acetamide] cannot be ordered by IC50: over 400 nM for the first, over 400 nM for the second.
